According to US20100178299A1, “METHODS AND COMPOSITIONS FOR IMPROVING IMMUNE RESPONSES” (Northeastern University, priority 2007, published 2010):
Entries after “also recorded” stand apart in the source; their conditions may differ.

What was measured:
B16 melanoma = B16 melanoma growth and survival in mice given GM-CSF-transfected B16 tumor vaccine; type: in vivo, C57BL/6 mice; settings: for survival of mice: log-rank
Excerpt: Tumor melanoma cells are transfected with GM-CSF then irradiated or treated with anti-proliferative drug, mitomycin C, in order to prevent the proliferation of these tumor vaccine cells in a patient to be injected with this vaccine. […] Hodi F S, Dranoff G. Combinatorial cancer immunotherapy. Adv Immunol. 2006; 90:341-68
B16 melanoma (1×10^6 cells, s.c.) were inoculated to syngeneic C57BL/6 mice. All the mice received tumor vaccination, GM-CSF transfectant of B16 cells (1×10^6 cells, s.c.), for 3 times in every week starting from day 2. On the same day, treatment with KW6002 (2 mg/kg, daily s.c. injection) and/or 60% oxygen was started until the end of the experiment. B16 tumor growth was retarded by treatment with 60% oxygen and combined treatment with KW6002 (left). Perpendicular tumor diameters were measured and tumor volumes were calculated according to the formula a2×b×0.52, where a is the smaller and b is the larger tumor diameter. […] The mice were euthanized when tumor reached 2.0 cm in diameter or became ulcerated. […] The difference was statistically significant with control vs 60% O2 (p=0.033) and control vs 60% O2+KW (p=0.001). The statistics was calculated by log-rank test.

[1] = system: MCA 205 fibrosarcoma lung metastases; assay: Adoptive immunotherapy of MCA 205 fibrosarcoma lung metastases; type: in vivo, mice; settings: KW6002 20 mg/kg daily i.p. with adoptive transfer of 12.5×10^6 anti-tumor T cells; day 21
Experimental: Here, we observed the effect of adoptively transferred anti-tumor T cells on the weakly immunogenic MCA 205 fibrosarcoma lung metastases if treatment included A2AR antagonist KW6002. It is shown that treatment with this long-lived A2AR antagonist may strongly enhance the efficacy of adoptive immunotherapy (FIG. 7).
CTLs were prepared from tumor draining lymph nodes isolated from lymph nodes 12 days after s.c. inoculation with 1.5×105 MCA205 fibrosarcoma. After 2 days anti-CD3 activation and additional 3 days IL-2 expansion, these T cells were injected into mice with 10 days established pulmonary metastases (3×10^5 MCA205 cells). After the adoptive transfer, the mice received daily i.p. injection of 20 mg/kg of KW6002. The pulmonary metastases were examined by day 21 after tumor inoculation. (Please note that tumors appear as white nodules upon the ink injected lungs.)

RMA T lymphoma = RMA T lymphoma growth, rejection and survival in mice treated with caffeine and/or 60% oxygen; type: in vivo, C57BL/6 mice
TNP-specific IgM = assay: TNP-KLH/CFA immunization with IFA booster, indirect ELISA of TNP-specific IgM (Example 2); type: in vivo, C57B1/6 mice
A2AR = target: T1, A2AR (Homo sapiens, UniProt P29274); assay: Control assay of ex vivo serum from caffeine-treated mice on adenosine→A2AR-induced cAMP accumulation in cells; type: cell-based; settings: ex vivo serum from mice given caffeine 0.1% w/v in drinking water
T1 construct: host or cells: cells, not specified

[2] = caffeine alone in drinking water (0.1% w/v), FIG. 2

T1 sequence (P29274 whole entry): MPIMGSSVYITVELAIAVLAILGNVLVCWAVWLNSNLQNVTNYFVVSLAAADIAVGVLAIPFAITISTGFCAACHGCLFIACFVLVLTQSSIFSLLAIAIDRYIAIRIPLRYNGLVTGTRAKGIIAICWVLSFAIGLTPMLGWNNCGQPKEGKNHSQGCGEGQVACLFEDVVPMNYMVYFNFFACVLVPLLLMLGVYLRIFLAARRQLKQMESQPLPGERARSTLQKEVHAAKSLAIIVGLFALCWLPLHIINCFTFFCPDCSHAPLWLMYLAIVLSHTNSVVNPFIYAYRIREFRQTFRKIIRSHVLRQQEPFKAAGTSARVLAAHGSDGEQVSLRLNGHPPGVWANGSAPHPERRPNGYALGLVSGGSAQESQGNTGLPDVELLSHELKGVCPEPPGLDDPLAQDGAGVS

CCn1c(=O)c2c(nc(/C=C/c3ccc(OC)c(OC)c3)n2C)n(CC)c1=O [KW6002, (E)-8-(3,4-dimethoxystyryl)-1,3-diethyl-7-methylxanthine]
B16 tumor growth (B16 melanoma; KW6002 2 mg/kg daily s.c. combined with 60% oxygen, n=8, 2 mg/kg): can significantly retard tumor growth; also recorded: retarded | survival of mice (B16 melanoma; KW6002 2 mg/kg daily s.c. combined with 60% oxygen, p=0.001 vs control): prolonged survival of mice | lung tumor nodules (pulmonary metastases) [1]: most of the tumor nodules were eliminated

oxygen
B16 tumor growth (B16 melanoma; 60% oxygen alone, with tumor vaccine, n=8): retarded | survival of mice (B16 melanoma; 60% oxygen alone, with tumor vaccine, p=0.033 vs control): prolonged survival of mice | tumor rejection (RMA T lymphoma; high dose RMA 3×10^5 cells s.c., 60% oxygen alone, n=8, most of the mice): did not reject the tumor; also recorded: couldn't reject the tumor | TNP-specific IgM production (TNP-specific IgM; 60% oxygen after vaccination versus normal oxygen, FIG. 4A): produced more IgM than control immunized mice

Cn1c(=O)c2c(ncn2C)n(C)c1=O [caffeine, 1,3,7-trimethylxanthine]
RMA tumor growth (RMA T lymphoma; [2]): delayed tumor growth in mice | survival (RMA T lymphoma; [2]): no significant improvement of survival | rejection of RMA T lymphoma (RMA T lymphoma; combined treatment with caffeine and high (60%) oxygen atmosphere): significantly improved spontaneous rejection of RMA T lymphoma; also recorded: dramatically improving tumor rejection and survival; also recorded: significantly improved T cell-mediated rejection of RMA T lymphoma | survival of mice (RMA T lymphoma; low dose RMA 2×10^5 cells s.c., combined caffeine and 60% oxygen, about 30% of control mice survived): significantly improved survival of mice | effectiveness of immunization (TNP-specific IgM) (TNP-specific IgM; caffeine in drinking water added to 60% oxygen versus 60% oxygen alone, FIG. 4B): further improved effectiveness of immunization | in vivo levels of caffeine in serum versus adenosine→A2AR-induced cAMP accumulation (A2AR): sufficiently high to prevent (antagonize) adenosine→A2AR-induced cAMP accumulation in cells
